# Reference: patent US20010024657A1, “Pharmaceutical oral patch for controlled release of pharmaceutical agents in the oral cavity” (priority 1997, published 2001)
# “Also recorded” adds a separate entry of the source.
# Columns and labels:
# [1] = cited from earlier work; for solubility in buffer (in words): neutral to slightly basic, pH 7-8, high buffering capacity
# [2] = In vivo release of clotrimazole from patches on the upper teeth, measured in saliva of volunteers; parameters: species or system human; settings: total dose of 10 mg clotrimazole from patches
# Protocol: Each volunteer attached two pharmaceutical oral patches of 5 mg clotrimazole to the buccal side of the upper teeth. No food or drink was allowed during the tests. Saliva samples were expectorated at given time intervals and tested for clotrimazole by HPLC. The patch was affixed to the tooth by using a drop of a solution of Eudragit S™ in ethanol.
# The in vivo release from the patches made from three formulations of differing molar ratios of NaOH were tested in vivo. Formulation 193-5 has a low level of NaOH (percent molar ratio of 11.5%) and the patch made therefrom is expected to release drug even more slowly than the patch made from formulation 193-34.
SMILES,solubility in buffer (in words) [1],solubility in water (in words) [1],time of clinically significant levels of clotrimazole in saliva [2]
O=C([O-])c1ccccc1O.[Na+] [sodium salicylate],very soluble,very soluble,–
"Clc1ccccc1C(c1ccccc1)(c1ccccc1)n1ccnc1 [clotrimazole, Clotrimazole]",–,poorly water soluble,at least 6 hours
CC(C(=O)O)c1ccc(-c2ccccc2)c(F)c1 (stereo not drawn) [flurbiprofen],soluble in buffer,poorly soluble in water; also recorded: only slightly soluble,–
